# Experimental data taken from US20260015333A1, “COMPOUNDS AND METHODS FOR INHIBITION OF THE EVOLUTION OF […]” (priority 2022, published 2026).
# Target: T1, E. coli RNAP (Escherichia coli, UniProt P0A7Z4+P0A800+P0A8T7+P0A8V2)
# T1 construct: purchased NEB
# Test: RNAP displacement assay, control reactions in the absence of Mfd
# Type: biochemical
# Conditions: RNAP with 12.5 μM ARM-1, no Mfd
# Procedure: FIGS. 2A-2D depict how ARM-1 affects Mfd's biochemical activity. FIG. 2A depicts how the kd of ARM-1 was determined using microscale thermophoresis. Data shown represent a minimum of three independent experiments. FIG. 2B depicts a NADH-coupled ATPase assay. ATP hydrolysis by Mfd was coupled to NADH oxidation. Phosphoenolpyruvate is converted to pyruvate by pyruvate kinase, transferring a phosphate group onto ADP, which is only present in the reaction following ATP hydrolysis by Mfd. Pyruvate is then converted to lactate by lactate dehydrogenase, oxidizing NADH to NAD^+. Absorbance at 340 nm by NADH is used to monitor the reaction. Data shown represent a minimum of 3 biological replicates. FIG. 2C depicts a transcription roadblock assay. A P32-labled 176 bp PCR fragment was incubated with E. coli RNAP along with saturating concentrations of ATP, GTP, and UTP. 100 nM S. typhimurium ST19 Mfd preincubated with indicated concentrations of ARM-1 was added and the reaction allowed to proceed for 6 minutes. DNA products were then resolved on a polyacrylamide gel and analyzed by phosphorimaging. […] Quantification of these gels is shown below each lane. […]
# Mfd translocates along double-stranded DNA and dislodges stalled RNAP complexes. […] When quantified, a ratio of EC to IC of approximately 1 was observed, which was consistent with prior work. […]
# T1 sequence (P0A7Z4 whole entry): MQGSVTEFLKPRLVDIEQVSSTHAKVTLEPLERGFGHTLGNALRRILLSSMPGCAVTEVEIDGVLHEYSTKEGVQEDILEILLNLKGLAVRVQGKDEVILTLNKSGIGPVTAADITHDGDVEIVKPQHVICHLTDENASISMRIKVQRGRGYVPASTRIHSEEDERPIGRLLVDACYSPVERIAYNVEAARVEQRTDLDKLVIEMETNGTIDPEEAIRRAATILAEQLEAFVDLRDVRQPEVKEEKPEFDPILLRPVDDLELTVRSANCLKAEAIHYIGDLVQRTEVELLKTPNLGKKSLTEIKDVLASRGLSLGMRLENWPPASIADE
# T1 sequence (P0A8V2 whole entry): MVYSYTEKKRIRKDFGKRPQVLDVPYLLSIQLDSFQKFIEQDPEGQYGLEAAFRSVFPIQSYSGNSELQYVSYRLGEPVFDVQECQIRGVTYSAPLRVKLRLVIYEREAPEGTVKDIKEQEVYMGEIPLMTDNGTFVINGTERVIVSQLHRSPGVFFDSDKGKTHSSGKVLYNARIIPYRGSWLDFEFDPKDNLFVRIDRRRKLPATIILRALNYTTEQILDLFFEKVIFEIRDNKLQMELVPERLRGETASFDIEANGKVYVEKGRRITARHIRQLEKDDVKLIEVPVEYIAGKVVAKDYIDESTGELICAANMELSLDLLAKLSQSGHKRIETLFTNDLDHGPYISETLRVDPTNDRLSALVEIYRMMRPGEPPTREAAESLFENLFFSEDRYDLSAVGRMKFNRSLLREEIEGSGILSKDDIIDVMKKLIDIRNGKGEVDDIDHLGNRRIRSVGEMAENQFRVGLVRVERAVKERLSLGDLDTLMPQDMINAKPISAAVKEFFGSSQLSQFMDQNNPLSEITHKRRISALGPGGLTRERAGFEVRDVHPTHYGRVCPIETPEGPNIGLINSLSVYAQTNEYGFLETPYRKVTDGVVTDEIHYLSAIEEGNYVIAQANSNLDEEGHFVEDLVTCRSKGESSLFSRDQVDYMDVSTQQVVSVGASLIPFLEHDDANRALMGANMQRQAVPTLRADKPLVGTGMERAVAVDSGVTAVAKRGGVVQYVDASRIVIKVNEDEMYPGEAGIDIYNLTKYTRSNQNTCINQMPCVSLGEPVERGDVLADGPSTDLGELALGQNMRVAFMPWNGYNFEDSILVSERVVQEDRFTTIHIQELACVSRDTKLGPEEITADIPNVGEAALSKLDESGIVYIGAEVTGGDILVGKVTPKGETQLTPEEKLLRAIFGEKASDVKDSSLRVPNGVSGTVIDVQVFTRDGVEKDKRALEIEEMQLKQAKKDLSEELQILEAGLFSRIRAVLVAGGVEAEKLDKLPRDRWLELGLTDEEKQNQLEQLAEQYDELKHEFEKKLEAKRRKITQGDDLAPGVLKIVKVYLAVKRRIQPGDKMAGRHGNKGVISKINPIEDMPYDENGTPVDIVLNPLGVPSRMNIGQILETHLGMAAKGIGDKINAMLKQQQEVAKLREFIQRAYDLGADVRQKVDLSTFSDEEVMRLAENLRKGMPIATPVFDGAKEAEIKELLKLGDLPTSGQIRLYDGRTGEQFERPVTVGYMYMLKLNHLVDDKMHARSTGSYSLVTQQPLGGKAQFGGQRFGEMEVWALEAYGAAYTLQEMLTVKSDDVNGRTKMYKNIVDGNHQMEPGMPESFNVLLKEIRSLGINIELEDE
# T1 sequence (P0A800 2-91): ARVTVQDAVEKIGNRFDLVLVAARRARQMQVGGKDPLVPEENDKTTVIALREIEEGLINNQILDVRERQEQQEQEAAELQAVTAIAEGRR
# T1 sequence (P0A8T7 whole entry): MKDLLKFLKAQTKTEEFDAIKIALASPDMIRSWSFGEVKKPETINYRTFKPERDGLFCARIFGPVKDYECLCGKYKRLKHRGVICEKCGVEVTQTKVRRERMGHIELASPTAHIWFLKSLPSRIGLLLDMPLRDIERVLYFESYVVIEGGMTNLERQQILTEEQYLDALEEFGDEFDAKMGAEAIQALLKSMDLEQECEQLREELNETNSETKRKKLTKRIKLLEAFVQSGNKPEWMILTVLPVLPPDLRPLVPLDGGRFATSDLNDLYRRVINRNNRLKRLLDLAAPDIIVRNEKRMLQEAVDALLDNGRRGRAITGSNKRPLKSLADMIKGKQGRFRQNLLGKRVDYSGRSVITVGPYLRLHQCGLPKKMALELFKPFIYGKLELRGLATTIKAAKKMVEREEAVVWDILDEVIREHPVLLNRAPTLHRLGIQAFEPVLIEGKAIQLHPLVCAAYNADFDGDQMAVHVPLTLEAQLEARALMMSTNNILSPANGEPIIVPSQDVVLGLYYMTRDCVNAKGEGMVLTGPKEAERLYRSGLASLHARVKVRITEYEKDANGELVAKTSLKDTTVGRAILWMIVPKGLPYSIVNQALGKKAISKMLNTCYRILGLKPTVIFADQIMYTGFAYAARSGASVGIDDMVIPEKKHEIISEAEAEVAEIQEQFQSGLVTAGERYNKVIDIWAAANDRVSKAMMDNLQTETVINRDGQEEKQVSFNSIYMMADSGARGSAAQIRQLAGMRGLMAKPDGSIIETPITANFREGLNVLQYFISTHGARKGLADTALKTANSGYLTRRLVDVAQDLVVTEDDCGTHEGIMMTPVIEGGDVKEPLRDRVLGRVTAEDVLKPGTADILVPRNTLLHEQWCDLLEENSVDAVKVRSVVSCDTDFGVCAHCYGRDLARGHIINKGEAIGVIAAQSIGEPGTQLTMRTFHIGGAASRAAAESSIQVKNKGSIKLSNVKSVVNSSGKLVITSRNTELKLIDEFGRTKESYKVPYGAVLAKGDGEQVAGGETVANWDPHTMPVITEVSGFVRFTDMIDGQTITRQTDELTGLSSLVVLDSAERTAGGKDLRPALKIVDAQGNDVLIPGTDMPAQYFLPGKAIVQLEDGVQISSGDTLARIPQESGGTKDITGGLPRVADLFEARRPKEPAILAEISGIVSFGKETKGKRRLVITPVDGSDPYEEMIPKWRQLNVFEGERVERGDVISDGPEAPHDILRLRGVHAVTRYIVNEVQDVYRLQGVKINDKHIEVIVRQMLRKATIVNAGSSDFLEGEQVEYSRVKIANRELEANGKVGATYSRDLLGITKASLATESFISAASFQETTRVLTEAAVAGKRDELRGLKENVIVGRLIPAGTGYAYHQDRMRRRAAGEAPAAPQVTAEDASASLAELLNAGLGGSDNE
smiles,measurement,value
"Cc1cc(Br)ccc1-c1ccc(CNCCCN(C)C)o1 [ARM-1, N^1-((5-(4-bromo-2-methylphenyl)furan-2-yl)methyl)-N^3,N^3-dimethylpropane-1,3-diamine]",changes on RNAP complexes in the absence of Mfd,did not have any detectable changes
